This note sets out measurements from patent US20220340582A1, “CANNABINOID DERIVATIVES” (CANOPY GROWTH CORPORATION, priority 2019, published 2022).

Where two headings read alike, the source gives them in different places.

As usually defined, the IC50 is the concentration that gives 50% inhibition.

The target of one experiment is T1, human CB1 receptor (Homo sapiens, UniProt P21554).
T1 construct: host or cells: CHO-K1
The experiment in a line: CB1 radioligand competitive binding assay ([3H]CP 55,940 displacement).

For another experiment, the target named is T2, human CB2 receptor (Homo sapiens, UniProt P34972).
T2 construct: host or cells: CHO-K1
T2 sequence (P34972 whole entry): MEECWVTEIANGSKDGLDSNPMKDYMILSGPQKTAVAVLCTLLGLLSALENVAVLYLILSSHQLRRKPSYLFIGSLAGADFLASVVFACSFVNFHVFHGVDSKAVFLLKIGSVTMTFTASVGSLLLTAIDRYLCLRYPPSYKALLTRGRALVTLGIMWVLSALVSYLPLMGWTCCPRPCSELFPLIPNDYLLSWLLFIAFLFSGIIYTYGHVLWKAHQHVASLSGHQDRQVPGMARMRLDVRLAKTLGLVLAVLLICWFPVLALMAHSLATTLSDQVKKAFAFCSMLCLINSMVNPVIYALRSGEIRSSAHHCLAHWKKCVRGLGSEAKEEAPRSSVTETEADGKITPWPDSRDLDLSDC
The experiment can be described thus: CB2 radioligand competitive binding assay ([3H]CP 55,940 displacement). Particulars: for Selectivity CB2: fold difference between CB1 and CB2 binding, printed in the column of the receptor with the higher binding affinity. Here is the method: Compounds of the present disclosure were tested for CB1 receptor binding affinity and for CB2 receptor binding affinity. As used herein, “binding affinity” is represented by the IC50 value, which was experimentally determined as described herein. The lower the IC50 value the higher the binding affinity.
The membranes were prepared from CHO-K1 (Chinese hamster ovary) cells stably transfected with the human CB2 receptor (Cat. #ES-111-C; Perkin Elmer, Boston, Mass.). The cells were grown adherently and maintained in Ham's F12 medium containing 10% fetal bovine serum (FBS), penicillin, streptomycin and geneticin (G418) at 37° C. in a humid atmosphere of 5% CO2 following the manufacturer's instructions.
For membrane preparation the cells were washed with PBS and scraped off the plates in cold homogenization buffer (25 mM HEPES (pH 7.4), 2 mM EDTA) containing protease inhibitor cocktail (Sigma Cat. #P8340). The cell suspension was homogenized with a Pro-PK-01200D Polytron Homogenizer (Pro Scientific) and then centrifuged for 30 min at 120,000×g. The supernatant was discarded and the pellet was re-suspended in the homogenization buffer and stored at −80° C. until the time of use.
In this experiment, 3H radiolabeled CP 55,940, i.e. [3H]CP 55,940 (Perkin Elmer, Boston, Mass.), was used as a radioligand for the CB2 receptor to determine the binding affinity of compounds for the CB2 receptor (Scheme 4; above).
The competition binding experiments (single dose and dose-response) were performed by incubating 0.6 nM of [3H]CP55,940 (specific activity 101 Ci/mmol, Perkin Elmer) and different concentrations of compounds disclosed herein with membranes prepared as above from CHO-K1 cells expressing human CB2 receptor (1 μg of protein/well), 50 mM Tris-HCl (pH 7.4), 5 mM MgCl2, 1 mM CaCl2, and 2 mg/mL BSA.
For the dose-response experiments the test compounds were sequentially diluted to provide the desired concentration range for the IC50 determination. In each case the compounds were pre-incubated with the membrane for 20 min, before adding the radioligand.
After incubation with the radioligand for 60 min at 37° C., the incubation was terminated by rapid filtration of assay mixture through MultiScreen®HTS^+96-well filter plates (Millipore, Cat. #MSFCNXB), pre-soaked for 60 min with 50 mM Tris-HCl (pH 7.4) containing 0.33% polyethylenimine (PEI). The nonspecific binding (NSB) was determined in the presence of 10 μM unlabelled CP55,940. After drying the filter plate at 50° C. for at least 60 min, the filter-bound radioactivity was determined by scintillation spectrometry using the 1450 MicroBeta Plate Counter (Perkin Elmer, Boston, MA).

Where [1] appears, read: 0.8 nM [3H]CP 55,940, CHO-K1 membranes expressing human CB1 receptor, dose-response, read-out: CB1 IC50.
The mark [2] stands for this setting: 0.6 nM [3H]CP55,940, CHO-K1 membranes expressing human CB2 receptor, dose-response, read-out: CB2 IC50.

T1 sequence (P21554 whole entry): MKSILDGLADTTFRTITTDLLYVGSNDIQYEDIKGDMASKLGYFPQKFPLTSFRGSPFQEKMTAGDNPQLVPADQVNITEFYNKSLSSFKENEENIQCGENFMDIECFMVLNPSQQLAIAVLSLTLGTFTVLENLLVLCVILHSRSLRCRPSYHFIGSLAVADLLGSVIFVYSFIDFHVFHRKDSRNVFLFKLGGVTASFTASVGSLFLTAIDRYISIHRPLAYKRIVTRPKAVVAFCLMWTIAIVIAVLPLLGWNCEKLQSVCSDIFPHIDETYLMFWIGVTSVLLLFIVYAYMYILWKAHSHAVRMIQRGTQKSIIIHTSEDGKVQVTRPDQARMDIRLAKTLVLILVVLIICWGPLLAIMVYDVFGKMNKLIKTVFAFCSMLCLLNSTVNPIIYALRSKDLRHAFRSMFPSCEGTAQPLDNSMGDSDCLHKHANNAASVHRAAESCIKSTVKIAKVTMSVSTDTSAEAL

At human CB1 receptor, `CCCCCc1cc2c(c(O)c1C(=O)NCC)[C@@H]1C=C(C)CC[C@H]1C(C)(C)O2` [Compound 3b, N-ethyl-1-hydroxy-6,6,9-trimethyl-3-pentyl-6a,7,8,10a-tetrahydro-6H-benzo[c]chromene-2-carboxamide] yielded an IC50 of 500 to 990 nM. Moreover, on human CB2 receptor, the IC50 fell in the range of 100 to 490 nM and the “Selectivity CB2” value is given as 3.33 fold.

As for `CCCCCc1cc2c(c(O)c1C(=O)NC1CC1)[C@@H]1C=C(C)CC[C@H]1C(C)(C)O2` [Compound 6b, N-cyclopropyl-1-hydroxy-6,6,9-trimethyl-3-pentyl-6a,7,8,10a-tetrahydro-6H-benzo[c]chromene-2-carboxamide], the IC50 on human CB1 receptor was 100 to 490 nM; on human CB2 receptor, < 100 nM. Also, the “Selectivity CB2” value at human CB2 receptor worked out at 9.08 fold.

`CCCCCc1cc2c(c(O)c1C(=O)Nc1ccccc1)[C@@H]1C=C(C)CC[C@H]1C(C)(C)O2` [Compound 10b, 1-hydroxy-6,6,9-trimethyl-3-pentyl-N-phenyl-6a,7,8,10a-tetrahydro-6H-benzo[c]chromene-2-carboxamide]: the IC50 on human CB1 receptor (setting [1]) and on human CB2 receptor (setting [2]) was < 100 nM in each case. Moreover, the “Selectivity CB2” value at human CB2 receptor stood at 8.81 fold.

For the molecule `CCCCCc1cc2c(c(O)c1C(=O)NCc1cccnc1)[C@@H]1C=C(C)CC[C@H]1C(C)(C)O2` [Compound 15b, 1-hydroxy-6,6,9-trimethyl-3-pentyl-N-(pyridin-3-ylmethyl)-6a,7,8,10a-tetrahydro-6H-benzo[c]chromene-2-carboxamide], the IC50 at human CB1 receptor (setting [1]) was > 1000 nM; on human CB2 receptor (setting [2]), < 100 nM. Moreover, the “Selectivity CB2” value on human CB2 receptor was determined as 19.07 fold.

Regarding `CCCCCc1cc2c(c(O)c1C(=O)N1CCN(C(C)=O)CC1)[C@@H]1C=C(C)CC[C@H]1C(C)(C)O2` [Compound 36b, 1-(4-(1-hydroxy-6,6,9-trimethyl-3-pentyl-6a,7,8,10a-tetrahydro-6H-benzo[c]chromene-2-carbonyl)piperazin-1-yl)ethan-1-one], the IC50 at human CB1 receptor and on human CB2 receptor was > 1000 nM in each case. For the same molecule, the “Selectivity CB1” value at human CB1 receptor (fold difference between CB1 and CB2 binding, printed in the column of the receptor with the higher binding affinity) worked out at 1.10 fold.

Take `CCCCCc1cc2c(c(O)c1C(=O)N1CCOCC1)[C@@H]1C=C(C)CC[C@H]1C(C)(C)O2` [Compound 39b, (1-hydroxy-6,6,9-trimethyl-3-pentyl-6a,7,8,10a-tetrahydro-6H-benzo[c]chromen-2-yl)(morpholino)methanone]: the IC50 at human CB1 receptor and at human CB2 receptor was 100 to 490 nM each time. Further, the “Selectivity CB2” value on human CB2 receptor worked out at 1.53 fold.

`CCCCCc1cc2c(c(O)c1C(=O)N1CCCC1)[C@@H]1C=C(C)CC[C@H]1C(C)(C)O2` [Compound 41b, (1-hydroxy-6,6,9-trimethyl-3-pentyl-6a,7,8,10a-tetrahydro-6H-benzo[c]chromen-2-yl)(pyrrolidin-1-yl)methanone]: the IC50 at human CB1 receptor was 100 to 490 nM. Further, on human CB2 receptor, the IC50 was in the range of 100 to 490 nM and the “Selectivity CB2” value amounted to 2.06 fold.

As to `CCCCCc1cc2c(c(O)c1C(=O)N1Cc3ccccc3C1)[C@@H]1C=C(C)CC[C@H]1C(C)(C)O2` [Compound 43b, (1-hydroxy-6,6,9-trimethyl-3-pentyl-6a,7,8,10a-tetrahydro-6H-benzo[c]chromen-2-yl)(isoindolin-2-yl)methanone], the IC50 at human CB1 receptor was > 1000 nM. In addition, at human CB2 receptor, the half-maximal inhibitory concentration (IC50) lay in the range of 100 to 490 nM and the “Selectivity CB2” value came to 8.33 fold.

`CCCCCc1cc2c(c(O)c1C(=O)N(CC)CC)[C@@H]1C=C(C)CC[C@H]1C(C)(C)O2` [Compound 50b, N,N-diethyl-1-hydroxy-6,6,9-trimethyl-3-pentyl-6a,7,8,10a-tetrahydro-6H-benzo[c]chromene-2-carboxamide] had an IC50 on human CB1 receptor of 100 to 490 nM. In addition, at human CB2 receptor, the IC50 is < 100 nM and the “Selectivity CB2” value amounted to 4.38 fold.

Regarding `CCCc1cc2c(c(O)c1C(=O)NC)[C@@H]1C=C(C)CC[C@H]1C(C)(C)O2` [Compound 58b, 1-hydroxy-N,6,6,9-tetramethyl-3-propyl-6a,7,8,10a-tetrahydro-6H-benzo[c]chromene-2-carboxamide], the IC50 on human CB1 receptor is > 1000 nM. For the same molecule, at human CB2 receptor, the IC50 is > 1000 nM and the “Selectivity CB2” value is 6.87 fold.
